Common to all, as to type: cell-based
What all share (settings): BLI where combined at 4 μg/mL

Assay [1] relates to E. coli 10 (TEM-20). The assay is described as follows: MIC determination, broth microdilution (CLSI). An excerpt:
(§1) While the compounds of this invention were serially diluted as described above, a constant concentration of the β-lactamase inhibitor of […] was used.
(Dilution methods test growth across graded concentrations, often in twofold steps.)

In assay [2] the test system is E. coli 121 (CTX-M). The assay is described as follows: MIC determination, broth microdilution (CLSI).
Source text: as §1

For assay [3], the system named is E. coli 128 (SHV-2a). The experiment in a line: MIC determination, broth microdilution (CLSI).
Source text: as §1

Assay [4] relates to E. coli 17 (CTX-M, CMY-2). The experiment in a line: MIC determination, broth microdilution (CLSI).
Source text: as §1

Assay [5] concerns E. coli 72 (CTX-M). The assay is described as follows: MIC determination, broth microdilution (CLSI).
Source text: as §1

Assay [6] has as its system E. coli DSM 22315 (VEB-1). The experiment in a line: MIC determination, broth microdilution (CLSI).
Source text: as §1

Assay [7] concerns E. coli J62-TEM-3 transconjugant (TEM-3). The assay is described as follows: MIC determination, broth microdilution (CLSI).
Source text: as §1

For assay [8], the system named is K. pneumoniae 16/10 (OXA-48, CTX-M-15). The assay is described as follows: MIC determination, broth microdilution (CLSI).
Source text: as §1

Assay [9] deals with K. pneumoniae 68 (SHV-5). The experiment in a line: MIC determination, broth microdilution (CLSI).
Source text: as §1

Assay [10] concerns K. pneumoniae 79 (CTX-M). The experiment in a line: MIC determination, broth microdilution (CLSI).
Source text: as §1

The subject of assay [11] is K. pneumoniae NRZ-15601 (OXA-48, SHV-12). The experiment in a line: MIC determination, broth microdilution (CLSI).
Source text: as §1

Assay [12] has as its system E. cloacae 58 (SHV-12, de-repressed AmpC).
For assay [13], the system named is K. pneumoniae NCTC 13440 (VIM-1, SHV-12). The assay is described as follows: MIC determination, broth microdilution (CLSI).
Source text: as §1

The results in this text go back to patent publication US20200093814A1, “COMBINATION THERAPY WITH AMIDINE SUBSTITUTED BETA-LACTAM COMPOUNDS AND BETA-LACTAMASE INHIBITORS FOR INFECTIONS WITH ANTIBIOTIC RESISTANT BACTERIAL STRAINS” (AiCuris GmbH & Co. KG, priority 2016, published 2020).

`CC(C)(O/N=C(\C(=O)N[C@@H]1C(=O)N2C(C(=O)[O-])=C(C[n+]3ccccc3)CS[C@H]12)c1csc(N)n1)C(=O)O` [ceftazidime]: the MIC in assay [1] was determined as 32 mg/L; in [2], 32 mg/L; in assay [3], 16 mg/L; in assay [4], 128 mg/L; in assay [5], 32 mg/L; in assay [6], 128 mg/L. Besides, the MIC in [7] is 16 mg/L; in assay [8], 128 mg/L; in assay [9], 64 mg/L; in assay [10] it was 16 mg/L; in [11] it was 64 mg/L; in assay [12] it was 128 mg/L.
In the case of aztreonam, the MIC in assay [1] turned out to be 64 mg/L; in assay [2], 64 mg/L; in [3], 8 mg/L; in [4], 128 mg/L; in assay [5], 128 mg/L; in assay [6] it was 64 mg/L. Further, the minimum inhibitory concentration (MIC) in [7] stood at 8 mg/L; in assay [9] it was 128 mg/L; in assay [10], 32 mg/L; in assay [13] it was 128 mg/L.

What is called MIC is the lowest concentration that inhibits growth of the organism.
